Columns and labels:
[1] = Molar extinction coefficient (UV absorption) in methanol; assay type: physicochemical; conditions: at λmax 305 nm in methanol
[2] = Vesicle formation and stability of aqueous dispersion; assay type: physicochemical
Description: However, this short duration of stability of aqueous suspension is sufficient for conducting the photoprotection experiment.

[3] = system: hairless skin of inner side of forearm; experiment: Photoprotection on human forearm skin exposed to midday sun; melanin content and erythema levels by Mexameter-18; assay type: in vivo; conditions: liposomal vs non-vesicle aqueous suspension
Description: Liposomal dispersion composition (200 mg of 5.0% dispersion) of p-methoxy cinnamidopropyldimethylbehenyl ammonium tosylate and a cream preparation containing octyl methoxy cinnamate (200 mg of cream containing 5% OMC) are applied on hairless skin of inner side of forearm (36 cm^2). The forearms are exposed to midday sun for 15 minutes. The melanin content and erythema levels have been measured by Mexameter-18 (Courage+Khazakha, gmbh, Germany) before and after the exposure.

Row | SMILES | Molar extinction coefficient, ε [1] | Stability of dispersion in water ([2]; aqueous suspension) | Vesicle formation ([2]; lipid by itself in water) | Photoprotection efficacy compared with p-methoxy cinnamidopropyl dimethyllauryl ammonium tosylate suspension [3]
1 | CCCCCCCCCCCCCCCCCCCCCC[N+](C)(C)CCCNC(=O)c1ccc(N(C)C)cc1.Cc1ccc(S(=O)(=O)[O-])cc1 [p-N,N-dimethylamine benzamidopropyldimethylbehenyl ammonium tosylate] | 22,200 | – | – | –
2 | CCCCCCCCCCCC[N+](C)(C)CCCNC(=O)C=Cc1ccc(OC)cc1.Cc1ccc(S(=O)(=O)[O-])cc1 [p-methoxy cinnamidopropyl dimethyllauryl ammonium tosylate] | – | unstable dispersion in water | does not form vesicles | –
3 | CCCCCCCCCCCCCCCCCCCCCC[N+](C)(C)CCCNC(=O)C=Cc1ccc(OC)cc1.Cc1ccc(S(=O)(=O)[O-])cc1 [p-methoxy cinnamidopropyldimethylbehenyl ammonium tosylate] | 23,000 | – | – | much more superior in protecting skin
